Source: ChEMBL document CHEMBL6103632, “Seven New Guanidine Derivatives and One New Hypoxanthine Derivative Isolated from the Scorpion Buthus martensii and Potential Anti-Neuroinflammatory Activity” (J Nat Prod, 2025)
Activity calls are given as the source filed them. No cut-off for these calls is given here.

Key:
[1] = Cytotoxicity against mouse BV-2 cells assessed as cell viability at 20 uM incubated for 24 hr by CCK-8 assay; assay type: toxicity, cell-based; conditions: read-out: Activity
[2] = system: BV-2; test: Antineuroinflammatory activity in LPS-induced mouse BV-2 cells assessed as reduction in TNF-alpha level at 20 uM pretreated with LPS for 4 hrs followed by compound treatment for 24 hrs by ELISA analysis; assay type: functional, cell-based
[3] = system: BV-2; test: Antineuroinflammatory activity in LPS-induced mouse BV-2 cells assessed as reduction in IL-1beta level at 20 uM pretreated with LPS for 4 hrs followed by compound treatment for 24 hrs by ELISA analysis; assay type: functional, cell-based
[4] = system: BV-2; test: Antineuroinflammatory activity in LPS-induced mouse BV-2 cells assessed as reduction in IL-6 level at 20 uM pretreated with LPS for 4 hrs followed by compound treatment for 24 hrs by ELISA analysis; assay type: functional, cell-based
[5] = system: Mitochondrial membrane; test: Induction of mitochondrial membrane potential in LPS-induced mouse BV-2 cells assessed as reduction in ratio of red to green fluorescence intensity at 20 uM pretreated with LPS for 4 hrs followed by compound treatment for 24 hrs by JC-1 staining based assay; assay type: cell membranes
[6] = system: BV-2; test: Antineuroinflammatory activity in LPS-induced mouse BV-2 cells assessed as reduction in ROS level pretreated with LPS for 4 hrs followed by compound treatment for 24 hrs by ROS probe based microscopy; assay type: functional, cell-based; conditions: dose 20.0 µM

SMILES | viability at 24 h, 20 µM [1] [%] | other results
CC(=O)CC(C)(C)n1cnc2c(=O)[nH]cnc21 | > 75 | –
N=C(N)NCCCCNC(=O)Cc1ccccc1 | > 75 | –
N=C(N)NCCCCNC(=O)c1c[nH]c2ccccc12 | > 75 | –
COc1cc(CC(=O)NCCCCNC(=N)N)ccc1O | > 75 | Activity [2]: Active; Activity [3]: Active; Activity [4]: Active; Activity [5]: Active
CCC/C=C/C(=O)NCCCCNC(=N)N | > 75 | –
COc1ccc2[nH]cc(CCNC(C)=O)c2c1 | – | Activity [6]: Dose-dependent-effect
N=C(N)NCCCCNC(=O)Cc1cc(Cl)c(O)c(Cl)c1 | > 75 | –
N=C(N)NCCCCNC(=O)c1cccnc1 | > 75 | –
N=C(N)NCCCCNC(=O)c1ccccc1 | > 75 | –
N=C(N)NCCCCNC(=O)Cc1ccc(O)c(Cl)c1 | > 75 | –
N=C(N)NCCCCNC(=O)c1ccc(O)cc1 | > 75 | –
N=C(N)NCCCCNC(=O)Cc1ccc(O)cc1 | > 75 | –
N=C(N)NCCCCn1cnc2ccccc2c1=O | > 75 | –
N=C(N)NCCCCNC(=O)Cc1c[nH]c2ccccc12 | > 75 | –
